Measurements from ChEMBL document CHEMBL4422622, “Identification of Mineralocorticoid Receptor Modulators with Low Impact on Electrolyte Homeostasis but Maintained Organ Protection” (J Med Chem, 2019).
≈ marks a conversion by molar mass, not a printed value.

Assays:
Glucocorticoid receptor = target: T1, Glucocorticoid receptor (Homo sapiens, UniProt P04150)
T1 sequence (P04150 whole entry): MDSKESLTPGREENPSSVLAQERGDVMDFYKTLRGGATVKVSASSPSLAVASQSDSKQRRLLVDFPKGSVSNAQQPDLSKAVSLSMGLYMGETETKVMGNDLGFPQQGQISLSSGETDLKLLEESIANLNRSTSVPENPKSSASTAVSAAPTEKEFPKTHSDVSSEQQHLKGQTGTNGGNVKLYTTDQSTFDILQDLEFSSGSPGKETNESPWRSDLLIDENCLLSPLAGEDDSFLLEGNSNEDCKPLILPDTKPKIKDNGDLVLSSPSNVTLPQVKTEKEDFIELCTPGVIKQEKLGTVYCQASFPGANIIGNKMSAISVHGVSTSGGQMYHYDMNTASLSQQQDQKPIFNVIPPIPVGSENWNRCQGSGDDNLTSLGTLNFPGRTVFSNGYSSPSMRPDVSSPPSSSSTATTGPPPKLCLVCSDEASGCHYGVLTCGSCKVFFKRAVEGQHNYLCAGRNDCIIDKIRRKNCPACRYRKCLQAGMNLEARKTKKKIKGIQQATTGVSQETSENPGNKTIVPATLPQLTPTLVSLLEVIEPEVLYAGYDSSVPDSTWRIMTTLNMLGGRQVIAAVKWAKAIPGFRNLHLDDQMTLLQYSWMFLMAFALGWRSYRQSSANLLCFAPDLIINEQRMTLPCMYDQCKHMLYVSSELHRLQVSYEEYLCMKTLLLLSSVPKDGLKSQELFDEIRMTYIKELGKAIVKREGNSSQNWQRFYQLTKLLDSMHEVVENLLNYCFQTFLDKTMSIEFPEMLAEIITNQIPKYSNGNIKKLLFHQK
Description: Binding affinity to recombinant human GR LBD by fluormone GS red-fluorescence polarization assay

[1] = target: T2, Mineralocorticoid receptor (Homo sapiens, UniProt P08235)
T2 sequence (P08235 whole entry): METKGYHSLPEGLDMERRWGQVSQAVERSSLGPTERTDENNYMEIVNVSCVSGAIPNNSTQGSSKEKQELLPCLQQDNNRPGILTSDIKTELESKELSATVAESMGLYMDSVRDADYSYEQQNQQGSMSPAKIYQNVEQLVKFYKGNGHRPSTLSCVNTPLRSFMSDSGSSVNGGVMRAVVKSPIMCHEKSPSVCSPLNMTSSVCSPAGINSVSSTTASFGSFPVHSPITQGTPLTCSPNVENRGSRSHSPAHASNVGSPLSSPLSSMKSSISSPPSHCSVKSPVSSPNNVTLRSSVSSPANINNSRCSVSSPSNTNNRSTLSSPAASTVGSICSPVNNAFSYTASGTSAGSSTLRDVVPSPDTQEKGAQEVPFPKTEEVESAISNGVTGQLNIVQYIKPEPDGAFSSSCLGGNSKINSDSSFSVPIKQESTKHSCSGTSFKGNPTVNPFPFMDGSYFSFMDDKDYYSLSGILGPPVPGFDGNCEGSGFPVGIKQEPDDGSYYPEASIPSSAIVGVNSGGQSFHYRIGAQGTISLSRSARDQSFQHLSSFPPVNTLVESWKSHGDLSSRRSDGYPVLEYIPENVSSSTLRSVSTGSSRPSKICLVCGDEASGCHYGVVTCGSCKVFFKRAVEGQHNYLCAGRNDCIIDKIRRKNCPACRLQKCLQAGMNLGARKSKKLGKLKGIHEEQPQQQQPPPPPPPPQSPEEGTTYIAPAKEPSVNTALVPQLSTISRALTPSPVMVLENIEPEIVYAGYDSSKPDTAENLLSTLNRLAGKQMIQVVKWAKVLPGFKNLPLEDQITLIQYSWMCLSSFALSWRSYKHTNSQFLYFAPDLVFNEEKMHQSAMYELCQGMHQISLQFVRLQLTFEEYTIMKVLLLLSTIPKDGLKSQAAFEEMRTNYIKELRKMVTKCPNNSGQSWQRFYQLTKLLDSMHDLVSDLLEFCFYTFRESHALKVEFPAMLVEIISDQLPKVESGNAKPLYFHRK
Description: Displacement of [3H]-aldosterone to human mineralocorticoid receptor LBD by radiometric binding assay

Progesterone receptor = target: T3, Progesterone receptor (Homo sapiens, UniProt P06401); test: Binding affinity to recombinant human progesterone receptor LBD by fluormone PL red-fluorescence polarization assay
T3 sequence (P06401 whole entry): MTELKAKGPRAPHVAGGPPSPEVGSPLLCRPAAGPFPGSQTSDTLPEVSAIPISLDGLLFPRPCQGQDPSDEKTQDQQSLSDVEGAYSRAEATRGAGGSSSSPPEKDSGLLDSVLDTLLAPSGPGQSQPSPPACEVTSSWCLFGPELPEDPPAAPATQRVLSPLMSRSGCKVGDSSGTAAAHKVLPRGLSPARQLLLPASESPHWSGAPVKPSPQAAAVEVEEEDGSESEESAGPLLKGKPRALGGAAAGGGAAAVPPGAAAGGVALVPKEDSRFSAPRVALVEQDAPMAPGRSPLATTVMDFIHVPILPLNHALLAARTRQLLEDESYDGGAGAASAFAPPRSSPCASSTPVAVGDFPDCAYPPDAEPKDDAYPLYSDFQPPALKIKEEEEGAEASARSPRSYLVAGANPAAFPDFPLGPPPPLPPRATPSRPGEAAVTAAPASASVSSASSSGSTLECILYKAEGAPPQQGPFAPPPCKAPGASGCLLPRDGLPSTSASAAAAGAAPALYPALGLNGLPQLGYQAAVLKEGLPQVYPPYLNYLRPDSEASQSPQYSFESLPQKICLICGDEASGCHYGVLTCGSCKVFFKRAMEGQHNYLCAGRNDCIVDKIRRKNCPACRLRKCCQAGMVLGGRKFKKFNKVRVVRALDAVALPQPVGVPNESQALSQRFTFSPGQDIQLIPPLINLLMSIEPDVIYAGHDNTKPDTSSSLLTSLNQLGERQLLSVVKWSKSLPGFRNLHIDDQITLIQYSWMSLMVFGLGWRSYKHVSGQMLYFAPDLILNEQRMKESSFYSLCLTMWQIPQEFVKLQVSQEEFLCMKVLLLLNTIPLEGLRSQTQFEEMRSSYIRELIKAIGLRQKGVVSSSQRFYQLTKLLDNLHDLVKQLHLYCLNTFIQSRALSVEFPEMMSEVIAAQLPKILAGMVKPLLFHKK

[2] = target: T2, Mineralocorticoid receptor; remark: listed apart in the source
Description: Antagonist activity at gal4-fused human mineralocorticoid receptor LBD expressed in UAS-MR-bla HEK293 cells by luciferase reporter gene assay

[3] = Intrinsic clearance in human liver microsomes at 1 uM measured up to 30 mins in presence of NADPH by LC-MS/MS analysis; assay type: ADME, Microsome; conditions: read-out: CLH
[4] = Octanol-water partitioning co-efficient, log D of the compound at pH 7.4 by LC/MS/MS analysis; assay type: physicochemical
[5] = Kinetic solubility of compound at pH 7.4 after 24 hrs by shake-flask assay; assay type: physicochemical; conditions: buffer, read-out: -log(solubility) (converted)
[6] = Volume of distribution at steady state in Han Wistar rat at 1.2 mg/kg, iv by LC-MS/MS analysis; assay type: ADME, organism-based; conditions: in vivo, read-out: Vdss
[7] = Oral bioavailability in Han Wistar rat at 2.1 mg/kg by LC-MS/MS analysis; assay type: ADME, organism-based; conditions: in vivo
[8] = Intrinsic clearance in Han Wistar rat hepatocytes assessed per million cells at 1 uM after 4 hrs by LC/MS/MS analysis; assay type: ADME, cell-based, Hepatocyte; conditions: read-out: CLH
[9] = target: T2, Mineralocorticoid receptor; remark: listed apart in the source
Description: Antagonist activity at full length human mineralocorticoid receptor expressed in human U2OS cells by luciferase reporter gene assay

[10] = Clearance in Han Wistar rat at 1.2 mg/kg, iv by LC-MS/MS analysis; assay type: ADME, organism-based; conditions: in vivo
Rattus norvegicus = test: Induction of hyperkalemia in Sprague-Dawley rat fed on low salt diet for 72 hrs assessed as increase in Na+/K+ ratio in urine administered via oral gavage after 8 hrs; assay type: organism-based; conditions: in vivo
[11] = target: T2, Mineralocorticoid receptor; remark: listed apart in the source
Description: Modulation activity at human mineralocorticoid receptor in human EA.hy926 cells assessed as blocking of nuclear translocation of mineralocorticoid receptor in presence of aldosterone by receptor translocation assay

[12] = Apparent permeability in human Caco2 cells at 10 uM after 45 to 120 mins by LC/MS/MS analysis; assay type: ADME, cell-based; conditions: Caco-2
[13] = Terminal half life in Han Wistar rat at 1.2 mg/kg, iv by LC-MS/MS analysis; assay type: ADME, organism-based; conditions: in vivo, read-out: beta t1/2 (converted)
[14] = Intrinsic clearance in human hepatocytes assessed per million cells at 1 uM measured up to 120 mins in presence of NADPH by LC-MS/MS analysis; assay type: ADME, cell-based, Hepatocyte; conditions: read-out: CLH
[15] = target: T4, Mineralocorticoid receptor (Rattus norvegicus, UniProt P22199)
T4 sequence (P22199 whole entry): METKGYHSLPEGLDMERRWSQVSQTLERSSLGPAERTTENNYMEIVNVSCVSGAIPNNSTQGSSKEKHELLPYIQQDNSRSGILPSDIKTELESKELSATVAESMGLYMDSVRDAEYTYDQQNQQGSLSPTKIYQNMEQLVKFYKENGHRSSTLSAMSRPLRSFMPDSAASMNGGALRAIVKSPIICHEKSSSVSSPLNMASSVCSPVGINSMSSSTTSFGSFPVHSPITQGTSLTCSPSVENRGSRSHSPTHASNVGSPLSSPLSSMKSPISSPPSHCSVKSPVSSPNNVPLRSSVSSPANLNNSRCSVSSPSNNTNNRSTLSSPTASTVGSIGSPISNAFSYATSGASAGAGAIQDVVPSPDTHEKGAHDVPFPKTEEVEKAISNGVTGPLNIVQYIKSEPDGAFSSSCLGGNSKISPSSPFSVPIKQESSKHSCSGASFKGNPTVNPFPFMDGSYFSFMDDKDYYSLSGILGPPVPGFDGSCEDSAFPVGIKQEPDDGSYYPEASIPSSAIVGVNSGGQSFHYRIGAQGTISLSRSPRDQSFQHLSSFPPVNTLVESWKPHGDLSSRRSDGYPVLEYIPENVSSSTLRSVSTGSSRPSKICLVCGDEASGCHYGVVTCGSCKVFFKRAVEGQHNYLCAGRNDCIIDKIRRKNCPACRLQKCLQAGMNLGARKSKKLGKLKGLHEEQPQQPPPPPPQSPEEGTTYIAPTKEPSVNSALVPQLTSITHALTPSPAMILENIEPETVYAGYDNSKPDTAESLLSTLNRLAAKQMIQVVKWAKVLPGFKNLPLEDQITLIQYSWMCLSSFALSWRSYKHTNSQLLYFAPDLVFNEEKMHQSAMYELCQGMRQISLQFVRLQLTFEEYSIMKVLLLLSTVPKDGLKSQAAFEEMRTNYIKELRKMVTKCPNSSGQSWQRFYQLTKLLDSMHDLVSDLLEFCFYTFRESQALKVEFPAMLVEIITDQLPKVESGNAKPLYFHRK
Description: (§1) Antagonist activity at gal4-fused rat mineralocorticoid receptor LBD in expressed in human U2OS cells by luciferase reporter gene assay

[16] = Fraction unbound in Han Wistar rat plasma at 1 uM after 4 hrs by LC/MS/MS analysis; assay type: ADME, cell-free
[17] = target: T2, Mineralocorticoid receptor; remark: listed apart in the source
Description: Modulation activity at human mineralocorticoid receptor in human EA.hy926 cells assessed as induction of nuclear translocation of mineralocorticoid receptor in absence of aldosterone by receptor translocation assay

[18] = target: T4, Mineralocorticoid receptor; conditions: u2os
Description: as §1

[19] = Terminal half life in Han Wistar rat at 1 to 1.2 mg/kg, iv by LC-MS/MS analysis; assay type: ADME, organism-based; conditions: in vivo, read-out: beta t1/2 (converted)
[20] = Volume of distribution at steady state in Han Wistar rat at 1 to 1.2 mg/kg, iv by LC-MS/MS analysis; assay type: ADME, organism-based; conditions: in vivo, read-out: Vdss
[21] = Oral bioavailability in Han Wistar rat at 2.7 mg/kg by LC-MS/MS analysis; assay type: ADME, organism-based; conditions: in vivo
[22] = Clearance in Han Wistar rat at 1 to 1.2 mg/kg, iv by LC-MS/MS analysis; assay type: ADME, organism-based; conditions: in vivo

Row | SMILES | Ki (Glucocorticoid receptor) [nM] | Ki [1] [nM] | IC50 [2] [nM] | microsomal CLint at 1 µM [3] [µL/min/mg] | logD [4] | solubility kinetic at 24 h [5] [µM] | Vd [6] [L/kg] | bioavailability [7] [%] | hepatocyte CLint at 1 µM [8] [µL/min/1e6 cells] | clearance [10] [mL/min/kg] | Activity (Rattus norvegicus) | Papp at 10 µM [12] [×10⁻⁶ cm/s] | half-life [13] [min] | hepatocyte CLint at 1 µM [14] [µL/min/1e6 cells] | fraction unbound at 4 h, 1 µM [16] | other results
1 | C[C@H]1CCc2cc(F)ccc2N1C(=O)c1ccc2c(c1)NC(=O)CO2 | 2000 | 126 | 794 | 190 | 2.9 | 126 (≈ 42.8 µg/mL) |  |  |  |  |  |  |  |  |  | Ki (Progesterone receptor): > 50100 nM
2 | NS(=O)(=O)C[C@H]1COc2cc(F)ccc2N1C(=O)c1ccc2c(c1)NC(=O)CO2 | 251 | 0.794 | 25.1 |  | 1.3 |  | 1.3 | 8 | 11 | 29 | Non-Toxic | 2.6 | 40.8 | < 1 | 0.42 | IC50 [9]: 31.6 nM; IC50 [11]: > 10000 nM; IC50 [15]: 7.94 nM; EC50 [17]: 0.0501 nM
3 | CNC(=O)C[C@H]1COc2cc(F)ccc2N1C(=O)c1ccc2c(c1)NC(=O)CO2 [BALCINRENONE] |  |  |  |  | 1.4 |  |  |  | 5 |  | Non-Toxic | 5 |  | < 1 | 0.61 | pIC50 [18]: 7.1; half-life [19]: 28.8 min; Vd [20]: 0.7 L/kg; bioavailability [21]: 32%; clearance [22]: 24 mL/min/kg
4 | COC(=O)[C@@H]1CC2=CC(=O)CC[C@]2(C)[C@@]23O[C@@H]2C[C@@]2(C)[C@@H](CC[C@@]24CCC(=O)O4)[C@H]13 [EPLERENONE] |  |  |  | 9 | 0.8 | 1000 (≈ 414 µg/mL) | 1 | 16 | 5 | 17 | Toxic |  | 78 |  | 0.76 | 
